What was measured:
[1] = tested on: healthy volunteers; conditions: chronic administration, even large acute doses of 700 mg/day; cited from earlier work
[2] = tested on: human subjects; conditions: human subjects submitted to SPST; cited from earlier work
[3] = tested on: Swiss albino mice; assay: Dose-response study: locomotor activity in the open field; type: in vivo; conditions: 7 days repeated, tested 8th day, tracked 60 min, vs vehicle
Method: The effect of CBD, KML29, and JZL184 on locomotor activity in the open field experiment was evaluated using Swiss albino mice.
A total of 88 male Swiss albino mice (˜30-45 g; 7-9 weeks old) were selected and body weights were recorded. Animals were administered respective treatments (n=8) as per the group allocation repeatedly for 7 days. On the day of testing (8th day), animals were brought to the laboratory 1 h prior to acclimatize to the laboratory conditions. Mice were habituated to the arenas for a period of 30 min. Respective treatments were intraperitoneally administered (vehicle (10 mL/kg) or Diazepam (1 mg/kg) or CBD (1, 10 and 100 mg/kg) or KML29 (3, 10 and 30 mg/kg) or JZL184 (3, 10 and 30 mg/kg)) immediately post habituation. After treatment animals were placed in the open field and distance traveled by mice was tracked for 60 min. Data obtained was analyzed by Student's ‘t’-test or Two-way repeated measures ANOVA followed by Bonferroni's posthoc tests by using the Graph pad prism software package (Version 7.0) and a p-value below 0.05 was considered as significant.

[4] = tested on: Swiss albino mice; assay: Anxiolytic effects of formulation: locomotor activity in open field, combinations vs diazepam; type: in vivo; conditions: 1 mg/kg, i.p.; tested 8th day, tracked 60 min; vs vehicle
Method: The effect of CBD, KML29, and JZL184 on locomotor activity in open field was evaluated using Swiss albino mice and compared with diazepam.
A total of 48 male Swiss albino mice (˜30-45 g; 7-9 weeks old) were selected and body weights were recorded. Animals were brought to the laboratory 1 h prior to acclimatize to the laboratory conditions. The open field is a black colored arena of 51×51×51 cm enclosed by black plastic walls of same dimensions. Animals were given respective intraperitoneal treatments as per the group allocation (n=8) repeatedly for 7 days. On the day of testing (8th day), mice were habituated to the arenas for a period of 30 min. […] Data obtained was analyzed by Student's ‘t’-test or Two-way repeated measures ANOVA followed by Bonferroni's posthoc tests by using the GraphPad prism software package (Version 7.02) and p-value below 0.05 was considered as significant.
Preparation of formulations: Diazepam was dissolved with sufficient volume of 5% pharmasolve and 95% of 30% w/v captisol to get the concentration of 0.10 mg/mL and was intended for intraperitoneal administration of 1 mg/kg dose at 10 mL/kg dose volume. CBD was dissolved in a calculated volume of DMSO to get the concentration of 20 mg/mL (Stock solution). […] KML29 was dissolved in a calculated volume of DMSO to get the concentration of 50 mg/mL (Stock solution). […]

## C=C(C)[C@@H]1CCC(C)=C[C@H]1c1c(O)cc(CCCCC)cc1O [CBD, cannabidiol]
[1]
  toxicity or serious side effects: No signs of toxicity or serious side effects
[2]
  anxiolytic effect: anxiolytic effects
[3]; 100 mg/kg, i.p.
  locomotion (distance traveled in open field): significantly decreased the locomotion

## O=C(Oc1ccc([N+](=O)[O-])cc1)N1CCC(C(O)(c2ccc3c(c2)OCO3)c2ccc3c(c2)OCO3)CC1 [JZL184, 4-nitrophenyl-4-[bis(1,3-benzodioxol-5yl)(hydroxy)methyl]piperidine-1-carboxylate]
[3]; 3, 10 and 30 mg/kg i.p.
  locomotion (distance traveled in open field): decreased the locomotion in a dose-dependent manner but the effect did not reach statistical significance

## O=C(N1CCC(=C2c3ccc(Cl)cc3CCc3cccnc32)CC1)n1cncn1 [KML29, [4-(8-Chloro-5,6-dihydro-11H-benzo[5,6]cyclohepta[1,2-b]pyridin-11-ylidene)-1-piperidinyl](1H-1,2,4-triazol-1-yl)methanone]
[3]; 30 mg/kg, i.p.
  locomotion (distance traveled in open field): decreased the locomotion and attained significance

## CN1C(=O)CN=C(c2ccccc2)c2cc(Cl)ccc21 [Diazepam, diazepam]
[4]
  locomotion (distance traveled in open field): significantly decreased the locomotion
[3]; 1 mg/kg, i.p.
  locomotion (distance traveled in open field): significantly decreased the locomotion

Source: patent US11147805B2, “Cannabinoid receptor agonists and serine hydrolase enzyme inhibitor based anxiolytic therapeutic product” (Medipure Pharmaceuticals Inc., priority 2019, dated 2021)
